Data as given in US9388215B2, “Compositions and methods of using islet neogenesis peptides and analogs thereof” (SHENZHEN HIGHTIDE BIOPHARMACEUTICAL, LTD., priority 2013, dated 2016).

How the values were obtained:
[1] = tested on: ARIP cells; experiment: ARIP cell proliferation (BrdU ELISA / CellTiter-Glo); assay type: cell-based, rat; settings: 100 nM peptide; compared to INGAP scrambled peptide and INGAP-PP; FIG. 1
Experimental: To measure cell proliferation, a bromodeoxyuridine (BrdU) ELISA assay was performed. Briefly, ARIP cells (ATCC (American Type Culture Collection), Manassas Va. USA), a rat pancreatic ductal cell line, were cultured in F-12K medium (Gibco-BRL, Gaithersburg, Md., USA) containing 10% fetal bovine serum (FBS; HyClone, Thermo Fisher Scientific Inc.; Waltham Mass. USA), 100 μg/ml streptomycin and 100 μg/ml penicillin in a cell incubator. ARIP cells were seeded into 96-well culture plates at 8000 or 0 (as blank control) cells/well in a volume of 50 μl cell culture medium and incubated overnight for the following experiments. On the second day, after replacing the medium with medium without serum, 50 μl serum-free cell culture medium containing test peptides at a series concentrations (final concentrations were 10 μM, 5 μM, 1 μM, 500 nM, 100 nM, 50 nM, 10 nM and 1 nM) were added to seeded cells. Medium without compound was added to negative control and background control wells. […] The absorbance at 450 nm (reference wavelength 690 nm) on an EnVision™ plate reader (Perkin Elmer, Boston Mass.) within 5 min after adding the stop solution was measured.
To test for cell viability, a CellTiter-Glo™ (CTG) assay (Promega, Madison Wis.) was performed. […] Luminescence signal was quantified on an EnVision™ plate reader after a 10 minute incubation at room temperature.

[2] = Peptide stability in culture medium (F-12K, 37° C., HPLC); assay type: physicochemical; settings: F-12K medium, 0.25 mg/mL, 0-72 hours, FIG. 2, FIG. 11
Experimental: To determine the stability of peptides in culture medium, a certain amount of selected peptides was accurately weighed and dissolved in distilled water to 5 mg/mL as a stock solution. The stock solution was diluted to 0.25 mg/mL with F-12K medium (Gibco-BRL, Gaithersburg, Md., USA) as working solution. A volume of 100 μL of each working solution was transferred into individual sample vials. The sample vials were incubated in a 37° C. incubator for 0, 24, 48 and 72 hours before being analyzed and quantitated by HPLC. […]

[3] = tested on: STZ induced diabetic mice; experiment: Efficacy in streptozotocin (STZ) induced diabetic mice model; assay type: in vivo, mouse
Experimental: After acclimatization in the animal facility for one week, 6-8 weeks old C57BL/6J mice were administered low dose STZ at 40 mg/kg in citrate buffer for 5 consecutive days to establish a T1D animal model. Mice with blood glucose greater than 16.7 mmol/L at 5 days post last STZ injection were included in the study. These mice were then treated with INGAP-PP (Peptide 1) or Peptide 7 at the doses of 5 mg/kg (2.5 mg/kg, bid (twice a day)) or 25 mg/kg (12.5 mg/kg, bid) for 20 days before sacrifices. Two additional groups of diabetic mice were administered either saline or a peptide (Peptide 3) composed of a scrambled sequence of amino acids from Peptide 1 as control groups. Blood glucose and insulin levels were measured, and 20 days post the last dosing of test agents, an oral glucose tolerance test (OGTT) was performed in 6 hour fasted animals to determine the effect of Peptide 1 and Peptide 7. Blood samples obtained from the tail cut for glucose determination were detected with an ACCU-CHEK™ glucometer (Roche, ACCU-CHEK® Active), and insulin levels were determined with Rat/Mouse Insulin Elisa kit (Millipore, Billerica, Mass. USA). For the OGTT, after the measurement of the basal glucose concentration (T=−30 min), mice received an oral glucose challenge at 2 g/kg and glucose values were determined by glucometer at 0, 15, 30, 60, 90 and 120 min.

[4] = tested on: normal C57BL/6J mice; experiment: Induction of small β-cell clusters in normal C57BL/6J mice (islet size distribution); assay type: in vivo, mouse
Experimental: After a 1-week acclimation, C57BL/6J female mice were randomly divided into 4 groups. The two control groups received either 10 mL/kg sterile normal saline (n=4) or scrambled peptide (Peptide 3, 25 mg/kg) (n=5) via subcutaneous injection for 10 days. The other two groups received INGAP-PP (Peptide 1) or INGAP-PP analog Peptide 7 at a dose of 25 mg/kg per day respectively (n=7 per group) for the same period. Body weight and 6 hour fasting blood glucose were measured before treatment and after the last dosing of treatment. Plasma and pancreatic insulin were also measured at the end of the study. On day 11, the pancreas was removed from each animal, cleared of fat and lymph nodes, weighed, and fixed in 10% neutral buffered formalin (NBF) for no longer than 24 hours before processing for morphometric analysis.
Immunohistochemistry analysis was used to determine pancreatic islet size distribution.

H-IGLHDPSHGTLPAGS-OH [Peptide 7, H-IGLHDPSHGTLPAGS-OH]
percentage increase in cell number (ARIP cell proliferation) [1]: significantly higher percentage increase in cell number | stability in culture medium [2]: significantly more stable than INGAP-PP peptide in culture medium | effect on body weight or pancreas weight ([3]; 5 mg/kg or 25 mg/kg for 20 days): did not affect body weight or pancreas weight | plasma insulin levels vs saline controls ([3]; 25 mg/kg dose group, end of the 20-day period, FIG. 6B): significantly different from saline controls and almost restored to the level of the naive group | glucose tolerance (OGTT, AUC of glucose) ([3]; FIG. 6C): improved glucose tolerance | blood glucose levels vs saline control group ([3]; day 21 of treatment, FIG. 6A): Significant differences in blood glucose levels | number of islets, islet size (Log [μm^2]) ranging from 2.1 to 0.7 ([4]; normal female C57BL/6J mice, 25 mg/kg per day, 10 days, versus naive/control group, FIG. 7): numbers increased significantly | effect on body weight, blood glucose, plasma insulin, pancreas insulin, pancreas weight ([4]; normal mice, 25 mg/kg per day sc for 10 days, compared to saline group): did not affect body weight, blood glucose, plasma insulin, pancreas insulin, or pancreas weight
